Reference: paper PMC5940854, “Nitrothiophene carboxamides, a novel narrow spectrum antibacterial series: Mechanism of action and Efficacy” (Scientific Reports, 2018)
Converted amounts (≈) assume the structure as drawn. “And” between values parts separate entries of the source, which are not always exact repeats. Equal values may be shown once.

What was measured:
E. coli ∆tolC JW5503-1 = test: MIC, E. coli ∆tolC; type: cell-based; settings: Escherichia coli, read-out: MIC tolC
Experimental: (§1) The inoculum used for all the experiments is derived from a single seed lot that is maintained as glycerol stocks at −80 °C and are sub cultured on LB plate for isolated colonies. Single colony of each strain is grown in M9 medium. All test compound stocks and dilutions are prepared in DMSO. Serial two-fold dilutions of compounds are prepared separately, with the concentrations ranging from 2 mg/mL to 0.015 mg/mL. To 150 µl (3–7 × 10^5 CFU/ml) of bacterial culture in 96 well microtitre plates, 3 μL compound from each of the dilutions is added to respective wells to obtain final concentrations ranging from 40 µg/mL to 0.3 µg/mL of the test compounds. Media control, culture control and appropriate reference drug controls are included. […] Growth is monitored by checking absorbance at 600 nm (A600). […] The samples from MIC and above concentrations are plated for MBC (Minimum Bactericidal Concentration). The samples are diluted 1:10 and plated on LB agar plates. […] The killing kinetics is determined by enumerating survivors at various time points following compound exposure. E. coli cells (~10^7 CFU/ml; A600 of 0.1) are treated with various concentrations (40 µg/mL to 0.3 µg/mL) of compounds in a 96-well microtitre plate. At various time intervals (0 to 8 h), 30 μl volumes of treated cultures are serially diluted and plated on LB agar plates. […] Data is expressed as the log10 CFU for each drug treatment.

E. coli ∆acrB JW0451-2 = test: MIC, E. coli ∆acrB; type: cell-based; set-up: MIC ∆acrB: unit not given beside the values; settings: for MIC: Escherichia coli, read-out: MIC acrB; for MIC ∆acrB: Table S11
Experimental: as §1

AcrB = target: T1, AcrB (Escherichia coli, UniProt P31224); test: Thermal shift assay with CPM dye; set-up: species or system E. coli; settings: AcrB vs apo-protein; > 1°C implies binding
T1 construct: Full length acrB gene was amplified from E. coli; BW25113; His-tag (C); made in house; host or cells: E. coli C43(DE3), plasmid pET21a
T1 sequence (P31224 whole entry): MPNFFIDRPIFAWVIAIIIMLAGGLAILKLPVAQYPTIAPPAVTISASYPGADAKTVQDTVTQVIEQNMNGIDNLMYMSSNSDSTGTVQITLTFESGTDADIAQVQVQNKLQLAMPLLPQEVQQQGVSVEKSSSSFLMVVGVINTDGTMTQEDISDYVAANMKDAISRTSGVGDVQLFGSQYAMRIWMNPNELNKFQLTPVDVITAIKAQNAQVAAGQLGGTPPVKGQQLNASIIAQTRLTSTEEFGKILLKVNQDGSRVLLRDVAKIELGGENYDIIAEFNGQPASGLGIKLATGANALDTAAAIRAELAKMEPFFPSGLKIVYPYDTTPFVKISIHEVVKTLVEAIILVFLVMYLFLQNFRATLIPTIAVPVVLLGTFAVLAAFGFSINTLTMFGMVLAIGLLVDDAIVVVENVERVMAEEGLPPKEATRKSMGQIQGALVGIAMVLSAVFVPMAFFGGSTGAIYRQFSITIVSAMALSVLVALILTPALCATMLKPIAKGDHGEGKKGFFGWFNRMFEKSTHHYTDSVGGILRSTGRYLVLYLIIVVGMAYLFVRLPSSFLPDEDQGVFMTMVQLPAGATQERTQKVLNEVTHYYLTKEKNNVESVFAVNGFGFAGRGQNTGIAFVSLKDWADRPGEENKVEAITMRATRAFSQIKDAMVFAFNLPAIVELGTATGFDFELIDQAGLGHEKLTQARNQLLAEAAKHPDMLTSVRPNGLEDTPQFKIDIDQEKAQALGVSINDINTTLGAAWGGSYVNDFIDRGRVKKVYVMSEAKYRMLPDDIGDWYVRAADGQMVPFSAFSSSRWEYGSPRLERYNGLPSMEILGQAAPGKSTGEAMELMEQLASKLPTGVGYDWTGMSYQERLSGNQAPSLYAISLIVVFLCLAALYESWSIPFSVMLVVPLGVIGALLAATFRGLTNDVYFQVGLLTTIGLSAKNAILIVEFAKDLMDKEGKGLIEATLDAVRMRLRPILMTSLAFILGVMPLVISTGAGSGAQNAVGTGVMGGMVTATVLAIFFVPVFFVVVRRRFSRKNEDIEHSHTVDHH
Experimental: AcrB overexpression protocol is adopted from Du. et al.[31]. Full length acrB gene was amplified from E. coli. BW25113 using Forward Primer 5′-[…]-3′ Reverse Primer 5′-[…]-3′ and cloned into the plasmid pET21a. The resultant plasmid that would express AcrB with a C-terminal His-tag is transformed into E. coli strain C43(DE3). The cells are induced on reaching A600 = 0.6 and transferred to 18 °C. The culture is harvested by centrifugation and re-suspended in Buffer A (100 mM Sodium Phosphate, 100 mM NaCl, 10 mM Imidazole, pH = 7.4, 100 µg/ml protease inhibitor cocktail from Roche and 5 U/ml DNase I and 5 mg/ml lysozyme). The cells are lysed at 15000 psi using Emulsiflex and centrifuged at 8000 g for removing cell debris. The membrane is isolated by centrifuging the resultant supernatant at 125000 g (see Coomassie stained SDS-PAGE of the purified protein Figure S9). Membrane solubilisation is done using Buffer A and 1.5% DDM (n-Dodecyl-β-D-Maltoside). Ni-NTA chromatography is used to purify the His-tagged protein and eluted in Buffer A with 300 mM Imidazole and 1.5% DDM.
The assay is performed according to protocols established elsewhere. CPM (N- [4-(7-diethylamino-4-methyl-3-coumarinyl) phenyl] maleimide) is a thiol specific fluorochrome (Excitation 387 nm, Emission 463 nm) and is non-fluorescent in an unbound state. The proteins, on thermal unfolding exposes cysteines allowing the CPM to bind and fluoresce. […]. The thermal denaturation is performed in a fluorimeter that is heated from 25 to 90 °C at a ramp rate of 1 °C/min. The Tm is calculated by analysing the melting profiles using Boltzmann Sigmoid function (GraphPad Prism) and ∆Tm is calculated by measuring the difference between the Tm of inhibitor bound protein and the apo-protein.

E. coli ∆nfsB = test: microbe, parasite or virus in culture; type: cell-based; settings: Escherichia coli, read-out: MIC ∆nfsB
Experimental: To assess the biological relevance of the interacting protein and establish the link between nitroreductases to the antibacterial activity of NTC compounds, single (ΔnfsA or ΔnfsB) and double knockouts (ΔnfsA & ΔnfsB) of nitroreductases were generated by phage transduction using strains from the Keio collection.
as §1
The wild-type E. coli strain BW25113 and the entire Keio collection of knockouts[22] is maintained as glycerol stocks at −80 °C in 96-well deep well blocks. […] These are sub cultured in 150 µl of LB broth (Kanamycin 50 ug/ml, except for the wild-type strain) in 96 well microtiter plates and then adapted into M9 medium with 0.4% glucose. […] Cultures of single gene knockouts that show an altered MIC as compared to that of the wild type are scored as ‘Hits’.

NfsA = target: T2, NfsA (Escherichia coli, UniProt P17117); test: Nitroreductase activity assay, NfsA; type: biochemical, E. coli; settings: 20 μM compound, 40 μM NADPH, 10 nM NfsA; slope of initial velocity
T2 construct: His-tag; made in house; host or cells: E. coli BL21(DE3), pET28a (pET-nfsA)
T2 sequence (P17117 whole entry): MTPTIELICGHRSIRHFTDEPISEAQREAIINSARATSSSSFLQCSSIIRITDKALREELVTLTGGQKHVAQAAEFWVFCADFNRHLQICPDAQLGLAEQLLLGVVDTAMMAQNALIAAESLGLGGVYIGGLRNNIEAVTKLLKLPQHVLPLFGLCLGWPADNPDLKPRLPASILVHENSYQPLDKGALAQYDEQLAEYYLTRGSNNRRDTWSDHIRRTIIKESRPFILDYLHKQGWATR
Experimental: Enzyme reducing each of the substrates are measured by monitoring the concomitant oxidation of NADPH by NfsA and NADH by NfsB in a fluorescence based assay. The reduction in fluorescence due to the NADH oxidation (excitation 350 nm, emission 460 nm) and NADPH oxidation (excitation 340 nm, emission 485 nm) is recorded using a TECAN Infinite M200Pro spectrophotometer, in half area solid black microtiter plates. This change in fluorescence directly corelates to the reduction of the nitro-compounds in the reaction. The NfsA assays is performed by initiating the reactions with 40 μM NADPH and 10 nM NfsA in 50 mM Tris-HCl (pH 7.4), 5 mM EDTA against 20 μM substrate (5 μl of compounds/substrate dissolved in 100% DMSO) in a total reaction volume of 100 μl at 25 °C. Similarly, the NfsB assay is also performed by initiating the reactions with 40 μM NADH and 70 nM NfsB in 50 mM Tris-HCl (pH 7.4), 5 mM EDTA against 20 μM substrate in a total reaction volume of 100 μl. […] All reactions are performed in replicates of two or more and the fluorescence measurements are made at 10 second intervals for 5–10 minutes.
Low solubility of the compounds/substrates under the NfsA and NfsB assay conditions precluded determination of their Km. […] The relative fluorescence units (RFU) obtained due to NADPH (excitation 340 nm, emission 485 nm) or NADH (excitation 350 nm, emission 460 nm) oxidation of the first 90 sec reaction is used to compute the slopes using linear regression analysis on GraphPad Prism. Appropriate blank reactions are included to account for background fluorescence/quenching from each of the components such as DMSO, the compound itself and auto-oxidation of NADPH or NADH. Activity of NfsB with a known substrate such as nitrofurantoin is used as a benchmark to plot the relative activities with all the test compounds.

ATCC25922 = test: MIC on E. coli ATCC25922; type: cell-based; settings: strain ATCC25922
Experimental: as §1

| SMILES | MIC (E. coli ∆tolC JW5503-1) [µg/mL] | MIC (E. coli ∆acrB JW0451-2) [µg/mL] | ∆Tm (AcrB) | MIC (E. coli ∆nfsB) [µg/mL] | NfsA activity (rate of compound conversion) (NfsA) [µM/min] | MIC ∆acrB (E. coli ∆acrB JW0451-2) | MIC (ATCC25922) [µg/mL] |
| --- | --- | --- | --- | --- | --- | --- | --- |
| Cc1sc(NC(=O)c2ccc([N+](=O)[O-])s2)nc1-c1ccccc1 [compound 7, N-(5-Methyl-4-phenylthiazol-2-yl)-5-nitrothiophene-2-carboxamide] | 1.25 (≈ 3.62 µM) | 1.25 (≈ 3.62 µM) | 4.13 °C | > 40 | 0.64 |  |  |
| O=C(Nc1nc(-c2ccc(F)cc2)cs1)c1ccc([N+](=O)[O-])s1 [compound 15, N-(4-(4-Fluorophenyl)thiazol-2-yl)-5-nitrothiophene-2-carboxamide] | 0.6 (≈ 1.72 µM) | 0.6 (≈ 1.72 µM) | 1.75 °C and < 2 °C | 5 (≈ 14.3 µM) | 2.05 | 0.6 | 1.25 (≈ 3.58 µM) |
| O=C(Nc1nc(-c2ccc(F)cc2F)cs1)c1ccc([N+](=O)[O-])s1 [compound 12, N-(4-(2,4-difluorophenyl)thiazol-2-yl)-5-nitrothiophene-2-carboxamide] | 0.15 (≈ 0.408 µM) | 0.3 (≈ 0.817 µM) | 0.68 °C | 2.5 (≈ 6.81 µM) | 2.30 | 0.3 | 1 (≈ 2.72 µM) |
| O=C1CN(/N=C/c2ccc([N+](=O)[O-])o2)C(=O)N1 [nitrofurantoin, reference compound] |  |  |  | 2.5 (≈ 10.5 µM) | 3.58 |  | 20 (≈ 84 µM) |
| COc1cc(-c2csc(NC(=O)c3ccc([N+](=O)[O-])s3)n2)ccc1Cl [compound 20, N-(4-(4-chloro-3-methoxyphenyl)thiazol-2-yl)-5-nitrothiophene-2-carboxamide] | 0.3 (≈ 0.758 µM) | 0.3 (≈ 0.758 µM) | 1.86 °C and < 2 °C | 2.5 (≈ 6.32 µM) | 0.61 | 0.3 | 2 (≈ 5.05 µM) |
